Values joined by “and” are separate entries in the source; they are usually repeats but may differ in a detail not shown here. Equal entries are not always repeated. Toxic doses and inconclusive results are not listed. Rule for the calls: active = survival T/C of 150% or more; inactive = T/C below 125% in these data.
System: CD2F1 mice, L1210 leukemia ip, survival T/C
Experiment: NCI In Vivo Anticancer Drug Screen. Data for tumor model L1210 Leukemia (intraperitoneal) in CD2F1 (CDF1) mice
Conditions: higher = longer survival
Method: The antitumor activity of compounds was measured in mice bearing transplantable tumors. Survival or tumor size were measured and the results are expressed as the measurement made in the treated group (T) divided by the measurement made in the vehicle treated control group (C). The tumor model used in this assay is L1210 Leukemia (intraperitoneal) in CD2F1 (CDF1) mice

[1] = endpoint: mean survival time, dose: 100.0 mg/kg/injection, schedule: Q04DX003 (ip), vehicle: saline
[2] = endpoint: mean survival time, dose: 200.0 mg/kg/injection, schedule: Q04DX003 (ip), vehicle: saline
[3] = endpoint: mean survival time, dose: 400.0 mg/kg/injection, schedule: Q04DX003 (ip), vehicle: saline
[4] = endpoint: mean survival time, dose: 100.0 mg/kg/injection, schedule: Q04DX003 (ip), vehicle: saline with Tween-80
[5] = endpoint: mean survival time, dose: 200.0 mg/kg/injection, schedule: Q04DX003 (ip), vehicle: saline with Tween-80
[6] = endpoint: mean survival time, dose: 400.0 mg/kg/injection, schedule: Q04DX003 (ip), vehicle: saline with Tween-80
[7] = endpoint: mean survival time, dose: 100.0 mg/kg/injection, schedule: Q01DX001 (ip), vehicle: saline with Tween-80
[8] = endpoint: mean survival time, dose: 200.0 mg/kg/injection, schedule: Q01DX001 (ip), vehicle: saline with Tween-80
[9] = endpoint: mean survival time, dose: 400.0 mg/kg/injection, schedule: Q01DX001 (ip), vehicle: saline with Tween-80
[10] = endpoint: mean survival time, dose: 25.0 mg/kg/injection, schedule: Q01DX009 (ip), vehicle: saline with Tween-80
[11] = endpoint: mean survival time, dose: 50.0 mg/kg/injection, schedule: Q01DX009 (ip), vehicle: saline with Tween-80
[12] = endpoint: mean survival time, dose: 100.0 mg/kg/injection, schedule: Q01DX009 (ip), vehicle: saline with Tween-80
[13] = endpoint: mean survival time, dose: 200.0 mg/kg/injection, schedule: Q01DX009 (ip), vehicle: saline with Tween-80
[14] = endpoint: mean survival time, dose: 25.0 mg/kg/injection, schedule: Q01DX009 (ip), vehicle: Klucel (hydroxypropylcellulose) (HPC)
[15] = endpoint: mean survival time, dose: 50.0 mg/kg/injection, schedule: Q01DX009 (ip), vehicle: Klucel (hydroxypropylcellulose) (HPC)
[16] = endpoint: mean survival time, dose: 100.0 mg/kg/injection, schedule: Q01DX009 (ip), vehicle: Klucel (hydroxypropylcellulose) (HPC)

Measured: T/C

CC(C)NC(=O)/C=C/C(=O)O
inactive: [1] 100 % of control | [2] 100 % of control | [3] 100 % of control

Cc1c(Cl)cccc1NC(=O)COc1ccc(Cl)cc1Cl
inactive: [4] 94 % of control | [5] 98 % of control | [6] 96 % of control

Nc1ccc(CCCCc2ccccc2)cc1
inactive: endpoint: mean survival time, dose: 100.0 mg/kg/injection, schedule: Q04DX003 (ip), vehicle: acetone 107 % of control

COc1ccc(C(=S)c2ccc(OC)cc2)cc1
inactive: [7] 101 % of control | [8] 96 % of control | [9] 101 % of control

CCOC(=O)c1c2c3c(c(Br)ccc3n(C)c1=O)C(=O)c1ccccc1-2
inactive: endpoint: mean survival time, dose: 12.5 mg/kg/injection, schedule: Q01DX009 (ip), vehicle: saline with Tween-80 98 % of control | [10] 96 % of control | [11] 98 % of control

CNC(=O)NCc1ccc(C(=O)NC(C)C)cc1
inactive: endpoint: mean survival time, dose: 50.0 mg/kg/injection, schedule: Q01DX009 (ip), vehicle: other 100 % of control | endpoint: mean survival time, dose: 100.0 mg/kg/injection, schedule: Q01DX009 (ip), vehicle: other 101 % of control | endpoint: mean survival time, dose: 200.0 mg/kg/injection, schedule: Q01DX009 (ip), vehicle: other 100 % of control | endpoint: mean survival time, dose: 400.0 mg/kg/injection, schedule: Q01DX009 (ip), vehicle: other 89 % of control

CN(C)c1ncnc2c1ncn2-c1cccc(-n2cnc3c(N(C)C)ncnc32)c1
inactive: endpoint: mean survival time, dose: 1.25 mg/kg/injection, schedule: Q01DX005 (ip), vehicle: other 103 % of control | endpoint: mean survival time, dose: 2.5 mg/kg/injection, schedule: Q01DX005 (ip), vehicle: other 88 % of control | endpoint: mean survival time, dose: 5.0 mg/kg/injection, schedule: Q01DX005 (ip), vehicle: other 92 % of control | endpoint: mean survival time, dose: 10.0 mg/kg/injection, schedule: Q01DX005 (ip), vehicle: other 92 % of control | endpoint: mean survival time, dose: 20.0 mg/kg/injection, schedule: Q01DX005 (ip), vehicle: other 88 % of control

COc1ccc2c(O)c(Cc3ccccc3)c(=O)oc2c1
inactive: [11] 112 % of control | [12] 103 % of control | [13] 103 % of control

C=C(Br)CNC(=O)CCC
inactive: endpoint: mean survival time, dose: 2.5 mg/kg/injection, schedule: Q01DX009 (ip), vehicle: saline with Tween-80 107 % of control | endpoint: mean survival time, dose: 5.0 mg/kg/injection, schedule: Q01DX009 (ip), vehicle: saline with Tween-80 106 % of control | endpoint: mean survival time, dose: 10.0 mg/kg/injection, schedule: Q01DX009 (ip), vehicle: saline with Tween-80 102 % of control

Nc1c(Cl)cc2c(c1Cl)Cc1c-2cc(Br)c(N)c1Br
inactive: endpoint: mean survival time, dose: 12.5 mg/kg/injection, schedule: Q01DX001 (ip), vehicle: saline with Tween-80 100 % of control | endpoint: mean survival time, dose: 25.0 mg/kg/injection, schedule: Q01DX001 (ip), vehicle: saline with Tween-80 97 % of control | endpoint: mean survival time, dose: 50.0 mg/kg/injection, schedule: Q01DX001 (ip), vehicle: saline with Tween-80 97 % of control | [7] 101 % of control

N#CSCc1ccc(CSC#N)c(Br)c1
inactive: endpoint: mean survival time, dose: 75.0 mg/kg/injection, schedule: Q04DX003 (ip), vehicle: saline 102 % of control | endpoint: mean survival time, dose: 150.0 mg/kg/injection, schedule: Q04DX003 (ip), vehicle: saline 98 % of control | endpoint: mean survival time, dose: 300.0 mg/kg/injection, schedule: Q04DX003 (ip), vehicle: saline 101 % of control

O=C1OC(c2ccccc2)(c2ccccn2)c2ccccc21 (stereo not given)
inactive: [4] 90 % of control | [5] 88 % of control | [6] 91 % of control

O=S(=O)(Nc1ccc(Cc2ccc(NS(=O)(=O)c3ccccc3)cc2)cc1)c1ccccc1
inactive: [7] 88 % of control | [8] 90 % of control | [9] 88 % of control

CC(C)CCCCCCCCCCCCC(=O)NCC(=O)NC1C(C)OC(Nc2ncnc3nc[nH]c23)C(O)C1O (stereo not given)
inactive: endpoint: mean survival time, dose: 0.25 mg/kg/injection, schedule: Q01DX009 (ip), vehicle: distilled water + Tween-80 100 % of control and 102 % of control | endpoint: mean survival time, dose: 0.5 mg/kg/injection, schedule: Q01DX009 (ip), vehicle: distilled water + Tween-80 96 % of control and 100 % of control | endpoint: mean survival time, dose: 1.0 mg/kg/injection, schedule: Q01DX009 (ip), vehicle: distilled water + Tween-80 96 % of control and 104 % of control | endpoint: mean survival time, dose: 2.0 mg/kg/injection, schedule: Q01DX009 (ip), vehicle: distilled water + Tween-80 98 % of control and 107 % of control | endpoint: mean survival time, dose: 4.0 mg/kg/injection, schedule: Q01DX009 (ip), vehicle: distilled water + Tween-80 96 % of control and 106 % of control | endpoint: mean survival time, dose: 8.0 mg/kg/injection, schedule: Q01DX009 (ip), vehicle: distilled water + Tween-80 94 % of control and 102 % of control

CC1(C)CC(C)(OC(=O)c2ccccc2)[N+]([O-])=N1 (stereo not given)
inactive: [14] 100 % of control | [15] 98 % of control | [16] 98 % of control | endpoint: mean survival time, dose: 200.0 mg/kg/injection, schedule: Q01DX009 (ip), vehicle: Klucel (hydroxypropylcellulose) (HPC) 95 % of control | endpoint: mean survival time, dose: 400.0 mg/kg/injection, schedule: Q01DX009 (ip), vehicle: Klucel (hydroxypropylcellulose) (HPC) 98 % of control

CC1CN1CC(O)C(O)CN1CC1C (stereo not given)
inactive: endpoint: mean survival time, dose: 2.5 mg/kg/injection, schedule: Q01DX009 (ip), vehicle: saline 115 % of control

Cc1cc2c(=O)cc(-c3ccccc3)oc2c(C(=O)O)c1C
inactive: endpoint: median survival time, dose: 31.75 mg/kg/injection, schedule: Q01DX005 (ip), vehicle: saline with Tween-80 109 % of control | endpoint: median survival time, dose: 62.5 mg/kg/injection, schedule: Q01DX005 (ip), vehicle: saline with Tween-80 106 % of control | endpoint: median survival time, dose: 125.0 mg/kg/injection, schedule: Q01DX005 (ip), vehicle: saline with Tween-80 104 % of control | endpoint: median survival time, dose: 250.0 mg/kg/injection, schedule: Q01DX005 (ip), vehicle: saline with Tween-80 102 % of control

CCC(=O)c1ccc(NC(=O)Nc2ncccn2)cc1
inactive: [15] 91 % of control | [16] 94 % of control

O=P(OCc1ccccc1)(N(CCCl)CCCl)N1CCOCC1 (stereo not given)
inactive: endpoint: mean survival time, dose: 62.5 mg/kg/injection, schedule: Q01DX010 (ip), vehicle: saline 103 % of control | endpoint: mean survival time, dose: 125.0 mg/kg/injection, schedule: Q01DX010 (ip), vehicle: saline 101 % of control | endpoint: mean survival time, dose: 250.0 mg/kg/injection, schedule: Q01DX010 (ip), vehicle: saline 104 % of control

Nc1ncnc2nc(-c3ccc(C(=O)c4cccc([N+](=O)[O-])c4)cc3)[nH]c12
inactive: endpoint: mean survival time, dose: 100.0 mg/kg/injection, schedule: Q04DX003 (ip), vehicle: Klucel (hydroxypropylcellulose) (HPC) 108 % of control | endpoint: mean survival time, dose: 200.0 mg/kg/injection, schedule: Q04DX003 (ip), vehicle: Klucel (hydroxypropylcellulose) (HPC) 102 % of control | endpoint: mean survival time, dose: 400.0 mg/kg/injection, schedule: Q04DX003 (ip), vehicle: Klucel (hydroxypropylcellulose) (HPC) 100 % of control

CC12CCC3C4CCC(=O)C(CCC(=O)O)=C4CCC3(CO1)C2 (stereo not given)
inactive: [7] 102 % of control | [8] 95 % of control | [9] 94 % of control

C(#[C][Ge]([C]#Cc1ccccc1)([C]#Cc1ccccc1)[C]#Cc1ccccc1)c1ccccc1
inactive: [10] 91 % of control | [11] 88 % of control | [12] 96 % of control | [13] 90 % of control

CN=C(N)N=C(N)N
inactive: [1] 103 % of control | [2] 100 % of control | [3] 95 % of control

CCCCCCCCCCCCCCCCCC[Se][Se]CCCCCCCCCCCCCCCCCC
inactive: endpoint: mean survival time, dose: 25.0 mg/kg/injection, schedule: Q04DX003 (ip), vehicle: saline with Tween-80 93 % of control | endpoint: mean survival time, dose: 50.0 mg/kg/injection, schedule: Q04DX003 (ip), vehicle: saline with Tween-80 95 % of control | [4] 95 % of control

CC1(C(=O)Sc2ccccc2)OC1(C)c1ccccc1 (stereo not given)
inactive: endpoint: mean survival time, dose: 100.0 mg/kg/injection, schedule: Q01DX001 (ip), vehicle: Klucel (hydroxypropylcellulose) (HPC) 97 % of control | endpoint: mean survival time, dose: 200.0 mg/kg/injection, schedule: Q01DX001 (ip), vehicle: Klucel (hydroxypropylcellulose) (HPC) 108 % of control | endpoint: mean survival time, dose: 400.0 mg/kg/injection, schedule: Q01DX001 (ip), vehicle: Klucel (hydroxypropylcellulose) (HPC) 97 % of control

COc1ccc(Cl)[n+]([O-])n1
inactive: endpoint: mean survival time, dose: 3.12 mg/kg/injection, schedule: Q01DX009 (ip), vehicle: Klucel (hydroxypropylcellulose) (HPC) 94 % of control and 103 % of control | endpoint: mean survival time, dose: 6.25 mg/kg/injection, schedule: Q01DX009 (ip), vehicle: Klucel (hydroxypropylcellulose) (HPC) 97 % of control and 101 % of control | endpoint: mean survival time, dose: 12.5 mg/kg/injection, schedule: Q01DX009 (ip), vehicle: Klucel (hydroxypropylcellulose) (HPC) 96 % of control and 106 % of control | [14] 98 % of control and 106 % of control | [15] 94 % of control and 101 % of control | [16] 101 % of control and 104 % of control

CN(C)S(=O)(=O)c1cc(Cl)ccc1NN
inactive: [4] 98 % of control | [5] 104 % of control | [6] 104 % of control
